# Tests used:
# [1] = molecular target: EGFR (Homo sapiens, UniProt P00533); design: method as in PMID 34146919; details: introduction; cited from earlier work
# [2] = molecular target: HER-2 (Homo sapiens, UniProt P04626); design: method as in PMID 34146919; details: introduction; cited from earlier work
# [3] = molecular target: BTK (Homo sapiens, UniProt Q06187); design: method as in PMID 34146919; details: introduction; cited from earlier work
# [4] = system: OVCAR-4; test: NCI single dose (10 µM) SRB screen; type: cell-based, human; details: ovarian cancer, 48 h
# [5] = system: OVCAR-5; test: NCI single dose (10 µM) SRB screen; type: cell-based, human; details: ovarian cancer, 48 h
# [6] = system: A549/ATCC; test: NCI single dose (10 µM) SRB screen; type: cell-based, human; details: non-small cell lung cancer, 48 h
# [7] = system: RXF 393; test: NCI single dose (10 µM) SRB screen; type: cell-based, human; details: renal cancer, 48 h
# [8] = system: T-47D; test: NCI single dose (10 µM) SRB screen; type: cell-based, human; details: breast cancer, 48 h
# [9] = system: Staphylococcus aureus; test: Agar well diffusion method; details: relative to ciprofloxacin
# [10] = system: IGROV1; test: NCI single dose (10 µM) SRB screen; type: cell-based, human; details: ovarian cancer, 48 h
# [11] = system: SNB-75; test: NCI single dose (10 µM) SRB screen; type: cell-based, human; details: CNS cancer, 48 h
# [12] = system: UACC-62; test: NCI single dose (10 µM) SRB screen; type: cell-based, human; details: melanoma, 48 h
# [13] = system: UACC-257; test: NCI single dose (10 µM) SRB screen; type: cell-based, human; details: melanoma, 48 h
# [14] = system: SNB-19; test: NCI single dose (10 µM) SRB screen; type: cell-based, human; details: CNS cancer, 48 h
# [15] = system: SF-268; test: NCI single dose (10 µM) SRB screen; type: cell-based, human; details: CNS cancer, 48 h
# [16] = system: NCI/ADR-RES; test: NCI single dose (10 µM) SRB screen; type: cell-based, human; details: ovarian cancer, 48 h
# [17] = system: SW-620; test: NCI single dose (10 µM) SRB screen; type: cell-based, human; details: colon cancer, 48 h
# [18] = system: MALME-3M; test: NCI single dose (10 µM) SRB screen; type: cell-based, human; details: melanoma, 48 h
# [19] = system: MOLT-4; test: NCI single dose (10 µM) SRB screen; type: cell-based, human; details: leukaemia, 48 h
# [20] = system: MDA-MB-435; test: NCI single dose (10 µM) SRB screen; type: cell-based, human; details: melanoma, 48 h
# [21] = system: CAKI-1; test: NCI single dose (10 µM) SRB screen; type: cell-based, human; details: renal cancer, 48 h
# [22] = system: NCI-H226; test: NCI single dose (10 µM) SRB screen; type: cell-based, human; details: non-small cell lung cancer, 48 h
# [23] = system: SF-539; test: NCI single dose (10 µM) SRB screen; type: cell-based, human; details: CNS cancer, 48 h
# [24] = system: TK-10; test: NCI single dose (10 µM) SRB screen; type: cell-based, human; details: renal cancer, 48 h
# [25] = system: MCF7; test: NCI single dose (10 µM) SRB screen; type: cell-based, human; details: breast cancer, 48 h
# [26] = system: KM12; test: NCI single dose (10 µM) SRB screen; type: cell-based, human; details: colon cancer, 48 h
# [27] = system: M14; test: NCI single dose (10 µM) SRB screen; type: cell-based, human; details: melanoma, 48 h
# [28] = system: HOP-62; test: NCI single dose (10 µM) SRB screen; type: cell-based, human; details: non-small cell lung cancer, 48 h
# [29] = system: SK-OV-3; test: NCI single dose (10 µM) SRB screen; type: cell-based, human; details: ovarian cancer, 48 h
# [30] = system: CCRF-CEM; test: NCI single dose (10 µM) SRB screen; type: cell-based, human; details: leukaemia, 48 h
# [31] = system: NCI 60 cancer cell lines; test: NCI single dose (10 µM) SRB screen, mean over panel; type: cell-based, human; details: mean over 60 cell lines, 48 h
# [32] = system: LOX IMVI; test: NCI single dose (10 µM) SRB screen; type: cell-based, human; details: melanoma, 48 h
# [33] = system: MDA-MB-231; test: NCI single dose (10 µM) SRB screen; type: cell-based, human; details: breast cancer, 48 h
# [34] = system: SK-MEL-28; test: NCI single dose (10 µM) SRB screen; type: cell-based, human; details: melanoma, 48 h
# [35] = system: OVCAR-3; test: NCI single dose (10 µM) SRB screen; type: cell-based, human; details: ovarian cancer, 48 h
# [36] = system: Escherichia coli; test: Agar well diffusion method; details: relative to ciprofloxacin
# [37] = system: SF-295; test: NCI single dose (10 µM) SRB screen; type: cell-based, human; details: CNS cancer, 48 h
# [38] = system: SK-MEL-5; test: NCI single dose (10 µM) SRB screen; type: cell-based, human; details: melanoma, 48 h
# [39] = system: BT-549; test: NCI single dose (10 µM) SRB screen; type: cell-based, human; details: breast cancer, 48 h
# [40] = system: DU-145; test: NCI single dose (10 µM) SRB screen; type: cell-based, human; details: prostate cancer, 48 h
# [41] = system: 786-0; test: NCI single dose (10 µM) SRB screen; type: cell-based, human; details: renal cancer, 48 h
# [42] = system: U251; test: NCI single dose (10 µM) SRB screen; type: cell-based, human; details: CNS cancer, 48 h
# [43] = system: Candida albicans; test: Agar well diffusion method; details: relative to clotrimazole
# [44] = system: NCI-H23; test: NCI single dose (10 µM) SRB screen; type: cell-based, human; details: non-small cell lung cancer, 48 h
# [45] = system: HT29; test: NCI single dose (10 µM) SRB screen; type: cell-based, human; details: colon cancer, 48 h
# [46] = system: OVCAR-8; test: NCI single dose (10 µM) SRB screen; type: cell-based, human; details: ovarian cancer, 48 h
# [47] = system: NCI-H322M; test: NCI single dose (10 µM) SRB screen; type: cell-based; details: non-small cell lung cancer, 48 h
# [48] = system: HCT-116; test: NCI single dose (10 µM) SRB screen; type: cell-based, human; details: colon cancer, 48 h
# [49] = system: RPMI-8226; test: NCI single dose (10 µM) SRB screen; type: cell-based, human; details: leukaemia, 48 h
# [50] = system: NCI-H522; test: NCI single dose (10 µM) SRB screen; type: cell-based, human; details: non-small cell lung cancer, 48 h
# [51] = system: K-562; test: NCI single dose (10 µM) SRB screen; type: cell-based, human; details: leukaemia, 48 h
# [52] = system: MDA-MB-468; test: NCI single dose (10 µM) SRB screen; type: cell-based, human; details: breast cancer, 48 h
# [53] = system: HCT-15; test: NCI single dose (10 µM) SRB screen; type: cell-based, human; details: colon cancer, 48 h
# [54] = system: EKVX; test: NCI single dose (10 µM) SRB screen; type: cell-based, human; details: non-small cell lung cancer, 48 h
# [55] = system: HCC-2998; test: NCI single dose (10 µM) SRB screen; type: cell-based, human; details: colon cancer, 48 h
# [56] = system: Pseudomonas aeruginosa; test: Agar well diffusion method; details: relative to ciprofloxacin
# [57] = system: Aspergillus flavus; test: Agar well diffusion method; details: relative to clotrimazole
# [58] = system: UO-31; test: NCI single dose (10 µM) SRB screen; type: cell-based, human; details: renal cancer, 48 h
# [59] = system: ACHN; test: NCI single dose (10 µM) SRB screen; type: cell-based, human; details: renal cancer, 48 h
# [60] = system: HS578T; test: NCI single dose (10 µM) SRB screen; type: cell-based, human; details: breast cancer, 48 h
# [61] = system: A498; test: NCI single dose (10 µM) SRB screen; type: cell-based, human; details: renal cancer, 48 h
# [62] = system: SK-MEL-2; test: NCI single dose (10 µM) SRB screen; type: cell-based, human; details: melanoma, 48 h
# [63] = system: PC-3; test: NCI single dose (10 µM) SRB screen; type: cell-based, human; details: prostate cancer, 48 h
# [64] = system: Bacillus subtilis; test: Agar well diffusion method; details: relative to ciprofloxacin
# [65] = system: SR; test: NCI single dose (10 µM) SRB screen; type: cell-based, human; details: leukaemia, 48 h
# [66] = system: NCI-H460; test: NCI single dose (10 µM) SRB screen; type: cell-based, human; details: non-small cell lung cancer, 48 h
# [67] = system: COLO 205; test: NCI single dose (10 µM) SRB screen; type: cell-based, human; details: colon cancer, 48 h
# [68] = system: SN12C; test: NCI single dose (10 µM) SRB screen; type: cell-based, human; details: renal cancer, 48 h
# [69] = system: HOP-92; test: NCI single dose (10 µM) SRB screen; type: cell-based, human; details: non-small cell lung cancer, 48 h
# [70] = system: HL-60(TB); test: NCI single dose (10 µM) SRB screen; type: cell-based, human; details: leukaemia, 48 h
# Chain of EGFR (P00533 25-1210): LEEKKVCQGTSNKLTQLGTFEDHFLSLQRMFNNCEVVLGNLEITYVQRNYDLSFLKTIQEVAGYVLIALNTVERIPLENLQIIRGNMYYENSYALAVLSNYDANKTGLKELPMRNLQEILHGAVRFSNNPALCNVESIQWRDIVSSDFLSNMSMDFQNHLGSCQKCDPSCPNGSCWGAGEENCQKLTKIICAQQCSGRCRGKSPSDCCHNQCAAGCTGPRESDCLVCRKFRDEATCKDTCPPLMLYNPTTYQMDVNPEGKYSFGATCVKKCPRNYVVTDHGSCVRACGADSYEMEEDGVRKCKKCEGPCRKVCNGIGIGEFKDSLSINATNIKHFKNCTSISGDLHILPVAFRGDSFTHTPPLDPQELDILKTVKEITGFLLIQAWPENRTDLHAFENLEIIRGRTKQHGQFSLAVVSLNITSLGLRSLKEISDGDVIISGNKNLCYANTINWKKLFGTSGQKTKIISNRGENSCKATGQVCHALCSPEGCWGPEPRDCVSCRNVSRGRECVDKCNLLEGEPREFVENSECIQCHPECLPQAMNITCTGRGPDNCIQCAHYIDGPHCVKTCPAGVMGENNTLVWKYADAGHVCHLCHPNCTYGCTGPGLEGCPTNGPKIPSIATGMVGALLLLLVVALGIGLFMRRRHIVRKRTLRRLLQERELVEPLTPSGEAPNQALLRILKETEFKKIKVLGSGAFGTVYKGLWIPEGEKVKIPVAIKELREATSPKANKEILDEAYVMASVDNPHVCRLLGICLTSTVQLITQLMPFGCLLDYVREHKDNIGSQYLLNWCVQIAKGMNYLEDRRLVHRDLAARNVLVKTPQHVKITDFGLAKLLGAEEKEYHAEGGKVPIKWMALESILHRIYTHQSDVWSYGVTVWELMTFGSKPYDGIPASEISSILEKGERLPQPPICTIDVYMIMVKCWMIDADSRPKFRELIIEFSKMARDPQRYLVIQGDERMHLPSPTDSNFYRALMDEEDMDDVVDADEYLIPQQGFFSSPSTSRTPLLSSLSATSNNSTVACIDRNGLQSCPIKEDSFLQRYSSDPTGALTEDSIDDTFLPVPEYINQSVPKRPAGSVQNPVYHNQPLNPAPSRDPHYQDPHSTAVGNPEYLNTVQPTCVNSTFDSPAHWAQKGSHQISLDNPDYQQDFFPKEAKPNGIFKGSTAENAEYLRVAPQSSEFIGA
# Chain of BTK (Q06187 whole entry): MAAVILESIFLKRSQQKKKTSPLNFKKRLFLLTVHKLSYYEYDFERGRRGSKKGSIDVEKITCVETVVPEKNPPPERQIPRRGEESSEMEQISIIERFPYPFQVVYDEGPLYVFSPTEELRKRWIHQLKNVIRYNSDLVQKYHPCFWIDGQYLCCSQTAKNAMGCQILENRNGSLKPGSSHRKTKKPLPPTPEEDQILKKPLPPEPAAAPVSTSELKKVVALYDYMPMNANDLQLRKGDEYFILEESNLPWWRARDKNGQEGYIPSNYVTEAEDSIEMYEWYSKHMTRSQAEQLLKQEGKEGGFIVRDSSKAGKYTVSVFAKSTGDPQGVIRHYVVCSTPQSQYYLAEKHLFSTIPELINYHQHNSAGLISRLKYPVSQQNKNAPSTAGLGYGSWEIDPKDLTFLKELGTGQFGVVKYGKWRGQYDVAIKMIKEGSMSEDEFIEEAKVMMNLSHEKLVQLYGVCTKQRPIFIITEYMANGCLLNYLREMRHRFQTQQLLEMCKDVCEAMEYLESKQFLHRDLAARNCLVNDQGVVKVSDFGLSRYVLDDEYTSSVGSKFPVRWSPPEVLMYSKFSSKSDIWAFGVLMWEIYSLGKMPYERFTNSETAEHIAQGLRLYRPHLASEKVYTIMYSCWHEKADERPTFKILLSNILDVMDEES
# Chain of HER-2 (P04626 23-1255): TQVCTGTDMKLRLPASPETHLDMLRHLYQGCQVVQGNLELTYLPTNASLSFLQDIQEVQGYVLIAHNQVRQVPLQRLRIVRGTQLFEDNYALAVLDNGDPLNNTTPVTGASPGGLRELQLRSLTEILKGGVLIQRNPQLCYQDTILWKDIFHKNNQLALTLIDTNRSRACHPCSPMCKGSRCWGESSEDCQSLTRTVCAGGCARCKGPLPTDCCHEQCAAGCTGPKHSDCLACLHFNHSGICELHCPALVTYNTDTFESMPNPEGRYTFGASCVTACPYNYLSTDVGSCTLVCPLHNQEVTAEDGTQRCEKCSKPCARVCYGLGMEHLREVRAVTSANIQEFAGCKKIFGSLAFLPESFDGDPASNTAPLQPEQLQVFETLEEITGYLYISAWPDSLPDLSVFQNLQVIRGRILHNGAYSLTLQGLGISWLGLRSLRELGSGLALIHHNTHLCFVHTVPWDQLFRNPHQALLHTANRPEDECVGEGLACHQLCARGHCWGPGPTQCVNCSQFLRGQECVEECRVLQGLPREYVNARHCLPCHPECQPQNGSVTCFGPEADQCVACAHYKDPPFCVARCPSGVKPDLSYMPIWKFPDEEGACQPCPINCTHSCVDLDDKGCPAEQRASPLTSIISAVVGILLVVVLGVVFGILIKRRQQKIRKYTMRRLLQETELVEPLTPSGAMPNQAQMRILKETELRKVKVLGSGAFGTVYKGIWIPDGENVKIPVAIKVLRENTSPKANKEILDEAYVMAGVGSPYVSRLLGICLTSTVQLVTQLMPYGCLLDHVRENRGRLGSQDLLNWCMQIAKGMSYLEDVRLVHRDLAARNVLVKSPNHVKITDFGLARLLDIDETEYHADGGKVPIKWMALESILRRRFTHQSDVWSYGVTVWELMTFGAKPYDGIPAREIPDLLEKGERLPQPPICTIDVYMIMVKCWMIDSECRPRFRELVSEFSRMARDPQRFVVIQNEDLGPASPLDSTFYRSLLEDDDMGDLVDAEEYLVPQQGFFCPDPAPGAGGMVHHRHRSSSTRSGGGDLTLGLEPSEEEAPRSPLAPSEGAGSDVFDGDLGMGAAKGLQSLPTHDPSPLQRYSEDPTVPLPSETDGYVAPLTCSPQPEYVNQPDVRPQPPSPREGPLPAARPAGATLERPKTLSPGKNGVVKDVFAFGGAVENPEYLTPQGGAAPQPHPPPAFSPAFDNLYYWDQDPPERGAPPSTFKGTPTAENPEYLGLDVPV
smiles,measurement,setting,value
CCOC(=O)C1=C(C)NC(C)=C(C(=O)OCC)C1c1ccc2c(c1)Cc1ccccc1-2 [Compound II],IC50,[1],71.8 nM
same,IC50,[2],84.5 nM
same,IC50,[3],68.8 nM
"CC1=C(C(=O)OCC(C)C)C(c2cccc(C#N)c2)C(C(=O)OCC(C)C)=C(C)N1 [Compound 1d, Diisobutyl 4-(3-cyanophenyl)-2,6-dimethyl-1,4-dihydropyridine-3,5-dicarboxylate]",GI% OVCAR-4,[4],16%
same,GI% OVCAR-5,[5],– (Only GI% ≥ 10 are shown)
same,GI% A549/ATCC,[6],25%
same,GI% RXF 393,[7],42%
same,GI% T-47D,[8],54%
same,"% activity index, S. aureus",[9],– (Values below 25 are of limited value and not shown as they refer either to inactive or non-diffusing compounds)
same,GI% IGROV1,[10],– (Only GI% ≥ 10 are shown)
same,GI% SNB-75,[11],32%
same,GI% UACC-62,[12],23%
same,GI% UACC-257,[13],17%
same,GI% SNB-19,[14],– (Only GI% ≥ 10 are shown)
same,GI% SF-268,[15],25%
same,GI% NCI/ADR-RES,[16],20%
same,GI% SW-620,[17],– (Only GI% ≥ 10 are shown)
same,GI% MALME-3M,[18],– (Only GI% ≥ 10 are shown)
same,GI% MOLT-4,[19],57%
same,GI% MDA-MB-435,[20],– (Only GI% ≥ 10 are shown)
same,GI% CAKI-1,[21],38%
same,GI% NCI-H226,[22],25%
same,GI% SF-539,[23],12%
same,GI% TK-10,[24],– (Only GI% ≥ 10 are shown)
same,GI% MCF7,[25],39%
same,GI% KM12,[26],24%
same,GI% M14,[27],– (Only GI% ≥ 10 are shown)
same,GI% HOP-62,[28],12%
same,GI% SK-OV-3,[29],– (Only GI% ≥ 10 are shown)
same,GI% CCRF-CEM,[30],32%
same,Mean GI%,[31],19%
same,GI% LOX IMVI,[32],10%
same,GI% MDA-MB-231,[33],17%
same,GI% SK-MEL-28,[34],– (Only GI% ≥ 10 are shown)
same,GI% OVCAR-3,[35],10%
same,"% activity index, E. coli",[36],– (Values below 25 are of limited value and not shown as they refer either to inactive or non-diffusing compounds)
same,GI% SF-295,[37],32%
same,GI% SK-MEL-5,[38],17%
same,GI% BT-549,[39],– (Only GI% ≥ 10 are shown)
same,GI% DU-145,[40],– (Only GI% ≥ 10 are shown)
same,GI% 786-0,[41],18%
same,GI% U251,[42],21%
same,"% activity index, C. albicans",[43],– (Values below 25 are of limited value and not shown as they refer either to inactive or non-diffusing compounds)
same,GI% NCI-H23,[44],14%
same,GI% HT29,[45],12%
same,GI% OVCAR-8,[46],11%
same,GI% NCI-H322M,[47],– (Only GI% ≥ 10 are shown)
same,GI% HCT-116,[48],32%
same,GI% RPMI-8226,[49],35%
same,GI% NCI-H522,[50],21%
same,GI% K-562,[51],44%
same,GI% MDA-MB-468,[52],30%
same,melting point,,146 to 148 °C
same,GI% HCT-15,[53],31%
same,GI% EKVX,[54],27%
same,GI% HCC-2998,[55],– (Only GI% ≥ 10 are shown)
same,"% activity index, P. aeruginosa",[56],– (Values below 25 are of limited value and not shown as they refer either to inactive or non-diffusing compounds)
same,"% activity index, A. flavus",[57],– (Values below 25 are of limited value and not shown as they refer either to inactive or non-diffusing compounds)
same,GI% UO-31,[58],20%
same,GI% ACHN,[59],16%
same,GI% HS578T,[60],25%
same,GI% A498,[61],17%
same,GI% SK-MEL-2,[62],14%
same,GI% PC-3,[63],57%
same,"% activity index, B. subtilis",[64],– (Values below 25 are of limited value and not shown as they refer either to inactive or non-diffusing compounds)
same,GI% SR,[65],52%
same,GI% NCI-H460,[66],13%
same,GI% COLO 205,[67],– (Only GI% ≥ 10 are shown)
same,GI% SN12C,[68],10%
same,GI% HOP-92,[69],37%
same,GI% HL-60(TB),[70],30%

# Reference: article PMC9481151, “Discovery of new symmetrical and asymmetrical nitrile-containing 1,4-dihydropyridine derivatives as dual kinases and P-glycoprotein inhibitors: synthesis, in vitro assays, and in silico studies” (Journal of Enzyme Inhibition and Medicinal Chemistry, 2022)
